Tests used:
[1] = Lowering of systolic blood pressure by the dose mixed into the feed; assay type: in vivo, Ratten, Stamm: RORO; conditions: average daily intake 10 mg/kg mixed into feed
Experimental: (§1) Die Tiere der Behandlungsgruppe erhielten 20 Tage lang soviel Cilazapril dem Futter beigemischt, dass die tägliche Cilazaprilaufnahme durchschnittlich 10 mg/kg betrug. Es handelt sich um eine Dosierung, die den systolischen Blutdruck um ca. 25% senkte. Die Kontrolltiere erhielten das gleiche Laborfutter ohne Zusatz. Die Ballonisierung der Arteria carotis communis wurde 6 Tage nach der ersten Gabe von Cilazapril durchgeführt. Die Tiere wurden mit Aetherinhalation und subcutaner Verabreichung von 200 mg/kg Hexobarbital-Na narkotisiert. Die distale linke Arteria carotis communis und das Bifurkationsgebiet von Carotis externa und interna wurden freigelegt. Der FOGARTY-Katheter (12-060-2F, Edwards Laboratories, Santa Anna, CA, USA) wurde durch die Arteria carotis externa in die Arteria carotis communis bis zum Aortenbogen eingeführt, der Ballon mit Wasser gefüllt (Füllungsvolumen ca. 0,01-0,015 ml) und gegen einen leichten Widerstand zurückgezogen. Dieses Procedere wurde zweimal wiederholt. Die Arteria carotis externa wurde ligiert und die Wunde vernäht. Die Operateure hatten keine Kenntnis, ob es sich um behandelte oder unbehandelte Tiere handelte.

[2] = system: Neointima in der ballonisierten Arteria carotis; assay: Neointima formation after balloon catheter injury (ballooning) of the carotid artery, morphometry of cross-sections 14 days later; assay type: in vivo, Ratten, Stamm: RORO
Description: Eine Arterie wird mit Hilfe eines Ballonkatheters, der durch das Gefässlumen geschoben wird, von innen verletzt (Ballonisierung). Dabei wird die innerste Zellschicht, das Endothel, entfernt und die Muskelzellen der Media leicht geschädigt. Die Muskelzellen werden dadurch zur Proliferation und Migration in die Intima angeregt. […] Das Ausmass der Neointimabildung wird anschliessend an Querschnitten durch die Arterie mit Hilfe morphometrischer Methoden ausgemessen.
Die Tiere wurden randomisiert in eine Kontrollgruppe und in eine Behandlungsgruppe eingeteilt. Es wurden je 11 Tiere als Kontroll- bzw. behandelte Tiere eingesetzt.
as §1, with “Es handelt sich um eine Dosierung, die den systolischen Blutdruck um ca. 25% senkte.” left out
14 Tage nach der Ballonisierung wurden die Ratten mit Aether anaesthesiert und die Carotiden durch Perfusion mit Fixationsmittel (2,5% Glutaraldehyd in 0,1 M Phosphatpuffer, pH 7,4), fixiert. Hierzu wurde eine Sonde durch den linken Herzventrikel in die aufsteigende Aorta geführt (Einfluss) und eine zweite Sonde durch den rechten Ventrikel in den Vorhof geschoben (Abfluss). Das Gefässsystem wurde zunächst mit 10 ml PBS ("phosphate buffered saline"; gepufferte isotonische NaCI-Lösung) gespült und dann 15 min lang mit Fixationsmittel bei einem Druck von 90 mm Quecksilbersäule fixiert. Anschliessend wurden sowohl die linke (ballonisierte) als auch die rechte (nicht-ballonisierte) Arteria carotis (Kontrolle) herauspräpariert, von Gewebe befreit und zur weiteren Fixation in 2,5% Glutaraldehyd in 0,1 M Cacodylat-Puffer eingelegt. […] Das mittlere Segment wurde für die morphologischen Untersuchungen verwendet.
Semidünne Querschnitte (1 µm dick) wurden mit Toluidinblau und basischem Fuchsin gefärbt.
Aus diesen Messungen wurden folgende Parameter berechnet: • (6) Die mittlere Dicke der Neointima in um, berechnet als Kreisring aus der Querschnittsfläche der Neointima. Hierzu wurde der Neointimaquerschnitt in einen Kreisring transformiert, dessen äussere Begrenzung die Lamina elastica interna bildete. • (7) Die Querschnittsfläche der Neointima zur Querschnittsfläche der Media in Prozent (normalisierte Neointimafläche) • (8) Der Prozentsatz der mit Neointima bedeckten Lamina elastica interna.

[3] = versus untreated control animals, about 10 mg/kg daily in feed, 14 days after ballooning

CCOC(=O)[C@H](CCc1ccccc1)N[C@H]1CCCN2CCC[C@@H](C(=O)O)N2C1=O [Cilazapril]
Senkung des systolischen Blutdrucks [1]: ca. 25%
Mittlere Dicke der Neointima ([2]; calculated as circular ring from the neointima cross-sectional area, mean ± SD, n = 11, about 10 mg/kg daily in feed, 14 days after ballooning, controls 50 ± 25): 8±7 µm
Querschnittsfläche des Lumens ([2]; mean ± SD, n = 11, about 10 mg/kg daily in feed for 20 days, 14 days after ballooning, untreated controls 324 x 10^3): 468 x 10^3±114 x 10^3 µm^2
Prozentsatz von mit Neointima bedeckter Lamina elastica interna ([2]; mean ± SD, n = 11, about 10 mg/kg daily in feed, 14 days after ballooning, controls 93 ± 15): 35±29%
Querschnittsfläche der Neointima ([2]; mean ± SD, n = 11, cilazapril about 10 mg/kg daily in feed for 20 days, ballooning on day 6, left carotid fixed 14 days after ballooning, untreated controls 109 x 10^3): 20 x 10^3±18 x 10^3 µm^2
Verhältnis von Querschnittsfläche der Neointima zu Querschnittsfläche der Media ([2]; normalised neointima area, mean ± SD, n = 11, about 10 mg/kg daily in feed, 14 days after ballooning, controls 101 ± 43): 23±21%
Tiere mit vollständig gehemmter Neointimabildung ([2]; number of treated animals out of 11, about 10 mg/kg daily in feed, 14 days after ballooning): 3 von 11
Hemmung (Querschnittsfläche der Neointima) [2, 3]: 82%
Hemmung (mittlere Dicke der Neointima) [2, 3]: 84%

Source: patent publication EP0363671A2, “Use of ACE inhibitors against the formation of neo-intima after vascular infliction” (F. HOFFMANN-LA ROCHE AG, priority 1988, dated 1990)
